Assay results taken from EP4722203A1, “3,4-DIHYDROPHTHALAZIN-1(2H)-ONE DERIVATIVE, AND PREPARATION METHOD THEREFOR AND USE THEREOF” (Academy of Military Medical Sciences, priority 2023, dated 2024).

Experiments:
MV-4-11 cells = experiment: Antiproliferative activity, CCK-8 assay; assay type: cell-based; settings: Homo sapiens, MV4-11; 144 hours incubation, CCK-8, absorbance at 450 nm
Protocol: (§1) The cell models used in this example were human hematologic tumor cells, including NCI-H929, RPMI-8226, MV-4-11, U937 and WSU-DLCL-2. Some of the compounds of the present invention were selected to determine their inhibitory activity against the proliferation of NCI-H929, RPMI-8226, MV-4-11, U937, and WSU-DLCL-2 cells.
(§2) • ① The selected compounds were dissolved in DMSO to prepare 10 mM stock solutions. Compounds used within three months should be stored at room temperature in a desiccator; others could be stored at -20°C for long-term storage. • ② The above stock solutions and the positive reference compound pomalidomide were diluted with DMSO. Their initial concentrations were 10 µM. In the experiments of NCI-H929 and RPMI-8226 cells, 3-fold serial dilution with 11 concentration points was performed, with the lowest concentration of 0.00047 µM. The resulting solutions were shaken on a shaker for 5 minutes.
(§3) • ① The NCI-H929, RPMI-8226, MV-4-11, U937, and WSU-DLCL-2 cells in logarithmic growth phase were inoculated in a 96-well plate, 20,000 to 30,000 cells per well, and the plate was pre-cultured for 24 hours in an incubator (at 37°C and 5% CO2). • ② The culture medium in the plate was replaced, and the compounds and the positive control with corresponding concentrations were added to the plated at a volume of 50 µl. • ③ The plate was incubated for 144 hours in an incubator, then 15 µl of CCK-8 solution was added to each well, and incubated in the incubator for another 1-4 hours. • ④ The absorbance at 450 nm was measured using a microplate reader.
(§4) • ① Calculating % Inhibition: [formula] • ② Calculating IC50 value of compound and plotting dose-response curve: The IC50 value was calculated by fitting the % Inhibition and the logarithm of compound concentration to a nonlinear regression (dose response-variable slope) by using GraphPad 6.0. • Y = Bottom + (Top - Bottom) / (1 + 10^((LogIC50 - X) * HillSlope)) • X: log of inhibitor concentration; Y: % Inhibition.
(§5) After calculating % Inhibition, a dose-response curve was plotted with the logarithm of the test compound concentration as the x-axis and the average cell viability as the y-axis, and the IC50 value was obtained by fitting.

NCI-H929 cells = experiment: Antiproliferative activity, CCK-8 assay; assay type: cell-based; settings: Homo sapiens, 144 hours incubation, CCK-8, absorbance at 450 nm, read-out: IC50 (µM) H-929
Protocol: as §1, §2, §3, §4, §5

RPMI-8226 cells = experiment: Antiproliferative activity, CCK-8 assay; assay type: cell-based; settings: Homo sapiens, 144 hours incubation, CCK-8, absorbance at 450 nm
Protocol: as §1, §2, §3, §4, §5

WSU-DLCL-2 cells = experiment: Antiproliferative activity, CCK-8 assay; assay type: cell-based; settings: Homo sapiens, WSUDLCL2; 144 hours incubation, CCK-8, absorbance at 450 nm
Protocol: as §1, §2, §3, §4, §5

U937 cells = experiment: Antiproliferative activity, CCK-8 assay; assay type: cell-based; settings: Homo sapiens, U-937; 144 hours incubation, CCK-8, absorbance at 450 nm
Protocol: as §1, §2, §3, §4, §5

[1] = test system: human multiple myeloma NCI-H929 xenograft tumors; experiment: In vivo antitumor activity against NCI-H929 transplanted tumors; set-up: species or system NOD/SCID mice; settings: QD; for Tumor inhibition rate TGI (%) / Average volume (mm^3) (Day 10) / Initial volume (mm^3): oral gavage; for Tumor inhibition rate TGI (%): 10 consecutive days; for Initial volume (mm^3): baseline
Protocol: In this example, the human multiple myeloma NCI-H929 cell line was used as the cell model. The inhibitory effects of compounds on the growth of NOD/SCID mouse transplanted tumors of NCI-H929 tumor cells were determined. The evaluation methods and results are described below.
(§6) Human multiple myeloma NCI-H929 cells were routinely cultured in RPMI1640 containing 10% fetal bovine serum at 37°C in a 5% CO2 incubator. After three passages in vitro, when the cells reached over 80% confluence and the required confluence rate, the cells were digested and harvested. After washing with PBS, the cells were counted and the cell concentration was adjusted to approximately 5 × 10^7 cells/mL. The cells were then placed in 4 mL centrifuge tubes on ice for later use.
(§7) Female NOD/SCID mice aged 4-5 weeks were selected and subcutaneously inoculated with NCI-H929 cells ectopically. The mice were held in a lateral position, the forelimb axilla was disinfected with 75% alcohol, and 100 µL of the cell suspension was injected subcutaneously into the axilla using a 1 mL syringe ([…]/100 µL).
After the tumors grew to 90-150 mm^3, the animals were randomly divided into groups, 8 mice in each group, and administered according to different administration methods as follows: • Model control group: Administered with the same volume of Vehicle (DMSO: 0.5% sodium carboxymethyl cellulose: distilled water = 1:1:8) daily by gavage; • Control drug group 1: administered with pomalidomide solution at 10 mg/kg (mouse body weight) daily by gavage; • Control drug group 2: administered with CC-220 solution at 3 mg/kg (mouse body weight) daily by gavage; • Control drug group 3: administered with CC-220 solution at 10 mg/kg (mouse body weight) daily by gavage; • Experimental compound group 4: administered with compound I-4 solution at 3 mg/kg (mouse body weight) daily by gavage; • Experimental compound group 5: administered with compound I-4 solution at 10 mg/kg (mouse body weight) daily by gavage; • Experimental compound group 6: administered with compound I-8 solution at 3 mg/kg (mouse body weight) daily by gavage; • Experimental compound group 7: administered with compound I-8 solution at 10 mg/kg (mouse body weight) daily by gavage;
(§8) The route of administration was oral gavage, and the administration frequency was once daily, for 10 consecutive days. The first day of administration was defined as Day 1 of the experiment. Tumor volume changes in mice were measured and recorded every two days. Tumor volume was measured using a vernier caliper, in which the major axis (a) and minor axis (b) of the tumor were measured, and the tumor volume was calculated as tumor volume V (mm^3) = a x b^2/2. After the experiment, the mice were dissected and the tumor weight was measured. The data were entered and statistically analyzed using GraphPad Prism 6 software. The data are expressed as mean ± SEM (Standard Error of Mean), and one-way ANOVA was used. P ≤ 0.05 was considered statistically significant.

[2] = test system: human multiple myeloma NCI-H929 xenograft tumors; experiment: In vivo activity in combination with dexamethasone against NCI-H929 transplanted tumor; set-up: species or system NOD/SCID mice; settings: each drug 3 mg/kg, QD, oral gavage, alone or combined
Protocol: In this example, human multiple myeloma NCI-H929 cell line was selected as the cell model to determine the inhibitory effects of compound and dexamethasone alone, as well as combination thereof on the growth of NOD/SCID mouse transplanted tumors of NCI-H929 tumor cells. The evaluation methods and results are described below.
as §6, §7
After the tumors grew to 90-150 mm^3, the animals were randomly divided into groups, 8 mice in each group, and administered according to different administration methods as follows: • Model control group: Administered with the same volume of Vehicle (DMSO: 0.5% sodium carboxymethyl cellulose: distilled water = 1:1:8) daily by gavage; • Test group 1: administered with dexamethasone (Dex) solution at 3 mg/kg (mouse body weight) daily by gavage; • Test group 2: administered with I-4 solution at 3 mg/kg (mouse body weight) daily by gavage; • Test group 3: administered with I-8 solution at 3 mg/kg (mouse body weight) daily by gavage; • Test group 4: administered with dexamethasone at 3 mg/kg (mouse body weight) and 1-4 solution at 3 mg/kg (mouse body weight) daily by gavage; • Test group 5: administered with dexamethasone at 3 mg/kg (mouse body weight) and I-8 solution at 3 mg/kg (mouse body weight) daily by gavage;
as §8

[3] = test system: human multiple myeloma NCI-H929 xenograft tumors; experiment: In vivo activity of combination therapy with bortezomib or tazemetostat against NCI-H929 transplanted tumor; set-up: species or system NOD/SCID mice; settings: I-8 3 mg/kg QD; for Average volume (mm^3) (Day 10) / Tumor inhibition rate TGI (%) / Initial volume (mm^3): Bort 1 mg/kg BIW, Taze 100 mg/kg QD, combinations given as + Bort 3 mg/kg BIW / + Taze 3 mg/kg QD; for Initial volume (mm^3): baseline
Protocol: In this example, the human multiple myeloma NCI-H929 cell line was selected as the cell model to determine the inhibitory effects of compounds, bortezomib (Bort), and tazemetostat (Taze), as single drugs and in combination, on the growth of NOD/SCID mouse transplanted tumors of NCI-H929 tumor cells. The evaluation methods and results are described below.
as §6, §7
After the tumors grew to 90-150 mm^3, the animals were randomly divided into groups, 8 mice in each group, and administered according to different administration methods as follows: • Model control group: Administered with the same volume of Vehicle (DMSO: 0.5% sodium carboxymethyl cellulose: distilled water = 1:1:8) daily by gavage; • Test group 1: administered with I-8 solution at 3 mg/kg (mouse body weight) daily by gavage; • Test group 2: administered with bortezomib (Bort) solution at 1 mg/kg (mouse body weight) twice weekly by gavage; • Test group 3: administered with tazemetostat solution at 100 mg/kg (mouse body weight) daily by gavage; • Test group 4: administered with I-8 at 3 mg/kg (mouse body weight) daily by gavage and bortezomib (Bort) solution at 1 mg/kg (mouse body weight) twice weekly by gavage; • Test group 5: administered with I-8 at 3 mg/kg (mouse body weight) daily by gavage and tazemetostat (Taze) solution at 100 mg/kg (mouse body weight) daily by gavage;
as §8

SMILES | IC50 (MV-4-11 cells) [µM] | IC50 (NCI-H929 cells) [µM] | IC50 (RPMI-8226 cells) [µM] | IC50 (WSU-DLCL-2 cells) [µM] | IC50 (U937 cells) [µM] | other results
CN1Cc2c(N)cc(F)cc2C(=O)N1C1CCC(=O)NC1=O (centres unmarked) [I-12, 3-(5-amino-7-fluoro-3-methyl-1-oxo-3,4-dihydrophthalazin-2(1H)-yl)piperidin-2,6-dione] | 0.874 | > 10 | 0.499 | 3.69 | 2.3 | –
CN1Cc2c(NCc3ccc(CN4CCN(C(=O)OC(C)(C)C)CC4)cc3)cccc2C(=O)N1C1CCC(=O)NC1=O (centres unmarked) [I-5, tert-butyl 4-(4-(((2-(2,6-dioxopiperidin-3-yl)-3-methyl-1-oxo-1,2,3,4-tetrahydrophthalazin-5-yl)amino)methyl)benzyl)piperazin-1-carboxylate] | 0.174 | 0.243 | 0.641 | 0.108 | 0.666 | –
O=C1CC[C@H](N2Cc3c(OCc4ccc(CN5CCOCC5)cc4)cccc3C2=O)C(=O)N1 [CC-220, reference compound] | – | – | – | – | – | Tumor inhibition rate TGI (%) ([1]; 3 mg/kg): 77.98%; Average volume (mm^3) (Day 10) ([1]; 3 mg/kg): 643.1 mm^3; Initial volume (mm^3) ([1]; 3 mg/kg): 214.6 mm^3; Tumor inhibition rate TGI (%) ([1]; 10 mg/kg): 100.09%; Average volume (mm^3) (Day 10) ([1]; 10 mg/kg): 205.5 mm^3; Initial volume (mm^3) ([1]; 10 mg/kg): 207.2 mm^3; body weight ([1]; 10 mg/kg, during the experiment, Figure 2B): decreasing trend in body weight
CNc1cccc2c1CN(C)N(C1CCC(=O)NC1=O)C2=O (centres unmarked) [I-2, 3-(3-methyl-5-(methylamino)-1-oxo-3,4-dihydrophthalazin-2(1H)-yl)piperidin-2,6-dione] | > 10 | 0.311 | 8.31 | 1.06 | 1.33 | –
CN1Cc2cc([N+](=O)[O-])ccc2C(=O)N1C1CCC(=O)NC1=O (centres unmarked) [I-11, 3-(3-methyl-6-nitro-1-oxo-3,4-dihydrophthalazin-2(1H)-yl)piperidin-2,6-dione] | 0.294 | 2.54 | 2.97 | 2.65 | 4.13 | –
CN1Cc2c(NCc3ccc(CN4CCOCC4)cc3)cccc2C(=O)N1C1CCC(=O)NC1=O (centres unmarked) [I-1, 3-(3-methyl-5-((4-(morpholinomethyl)benzyl)amino)-1-oxo-3,4-dihydrophthalazin-2(1H)-yl)piperidin-2,6-dione] | 3.43 | – | – | 0.358 | 1.32 | –
C[C@@H]1C[C@H]2[C@@H]3CCC4=CC(=O)C=C[C@]4(C)[C@@]3(F)[C@@H](O)C[C@]2(C)[C@@]1(O)C(=O)CO [Dex, dexamethasone, reference compound] | – | – | – | – | – | Tumor inhibition rate TGI (%) ([2]; 10 consecutive days): 45.48%; Average volume (mm^3) (Day 10) ([2]; Day 10): 1048.6 mm^3; Initial volume (mm^3) ([2]; baseline): 185.7 mm^3
CC(C)C[C@H](NC(=O)[C@H](Cc1ccccc1)NC(=O)c1cnccn1)B(O)O [Bort, bortezomib] | – | – | – | – | – | Average volume (mm^3) (Day 10) [3]: 1249.7 mm^3; Tumor inhibition rate TGI (%) [3]: 30.78%; growth of NCI-H929 transplanted tumors (in words) ([3]; bortezomib 1 mg/kg BIW, tazemetostat 100 mg/kg QD, alone or combined): weaker tumor-inhibiting abilities; Initial volume (mm^3) [3]: 100.6 mm^3
CN1Cc2c(NCc3ccc(CN4CCN(c5ccccc5)CC4)cc3)cccc2C(=O)N1C1CCC(=O)NC1=O (centres unmarked) [I-3, 3-(3-methyl-1-oxo-5-((4-((4-phenylpiperazin-1-yl)methyl)benzyl)amino)-3,4-dihydrophthalazin-2(1H)-yl)piperidin-2,6-dione] | 1.39 | 1.3 | – | 0.279 | 1.11 | –
CCN(c1cc(-c2ccc(CN3CCOCC3)cc2)cc(C(=O)NCc2c(C)cc(C)[nH]c2=O)c1C)C1CCOCC1 [Taze, tazemetostat] | – | – | – | – | – | Average volume (mm^3) (Day 10) [3]: 1558.0 mm^3; Tumor inhibition rate TGI (%) [3]: 12.83%; Initial volume (mm^3) [3]: 110.8 mm^3
